Laboratory results published in ChEMBL document CHEMBL1201862, “PubChem BioAssay data set” (2004).
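Grown in 96-well plates, cells were treated for 48 hours with each compound at five concentrations. Insufficient inhibition: endpoint recorded as highest concentration tested. GI50 = concentration required for 50% inhibition of growth.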 Calls of active or inactive are those of the source. Cut-off read from the data, not from the text of the source: active = GI50 up to about 1.1 µM and inactive = higher.

Legend:
Experiment in all cases: NCI tumour cell line growth inhibition, 48 h
MDA-MB-435 = system: MDA-MB-435
MOLT-4 = system: MOLT-4
SW-620 = system: SW-620
NCI-H522 = system: NCI-H522
UACC-257 = system: UACC-257
M14 = system: M14
SF-539 = system: SF-539
786-0 = system: 786-0
SF-268 = system: SF-268
HCT-15 = system: HCT-15
COLO 205 = system: COLO 205
OVCAR-5 = system: OVCAR-5
HOP-92 = system: HOP-92
SR = system: SR
SNB-75 = system: SNB-75
PC-3 = system: PC-3
EKVX = system: EKVX
MDA-N = system: MDA-N
SK-MEL-28 = system: SK-MEL-28
RXF 393 = system: RXF 393

CC1(C=O)CCC23COC4(CCC5C6(C)CCC(OC7OCC(OC8OC(CO)C(O)C(OC9OC(CO)C(O)C(O)C9O)C8OC8OCC(O)C(O)C8O)C(O)C7OC7OC(CO)C(O)C(O)C7O)C(C)(C)C6CCC5(C)C4(C)CC2O)C3C1 (stereo unspecified)
GI50 (MDA-MB-435): 1.48 µM (inactive) | GI50 (MOLT-4): 0.367 µM (active) | GI50 (SW-620): 0.628 µM (active) | GI50 (NCI-H522): 1.68 µM (inactive) | GI50 (UACC-257): 1.75 µM (inactive) | GI50 (M14): 1.52 µM (inactive) | GI50 (SF-539): 1.3 µM (inactive) | GI50 (786-0): 1.2 µM (inactive) | GI50 (SF-268): 1.14 µM (inactive) | GI50 (HCT-15): 1.53 µM | GI50 (COLO 205): 1.3 µM (inactive) | GI50 (OVCAR-5): 1.29 µM (inactive) | GI50 (HOP-92): 0.381 µM (active) | GI50 (SR): 0.132 µM (active) | GI50 (SNB-75): 1.26 µM (inactive) | GI50 (PC-3): 1.38 µM (inactive) | GI50 (EKVX): 1.5 µM (inactive) | GI50 (MDA-N): 0.557 µM (active)

Cc1cccc(-c2nc(-c3cnccn3)n(Cc3ccccc3)n2)c1
GI50 (MDA-MB-435): > 100 µM (inactive) | GI50 (MOLT-4): > 100 µM (inactive) | GI50 (SW-620): > 100 µM (inactive) | GI50 (NCI-H522): > 100 µM (inactive) | GI50 (SK-MEL-28): 68.5 µM (inactive) | GI50 (RXF 393): 29.6 µM (inactive) | GI50 (UACC-257): > 100 µM (inactive) | GI50 (M14): > 100 µM (inactive) | GI50 (SF-539): > 100 µM (inactive) | GI50 (786-0): 52.7 µM (inactive) | GI50 (SF-268): > 100 µM (inactive) | GI50 (HCT-15): > 100 µM | GI50 (COLO 205): > 100 µM (inactive) | GI50 (OVCAR-5): > 100 µM (inactive) | GI50 (HOP-92): 34 µM (inactive) | GI50 (SR): > 100 µM (inactive) | GI50 (SNB-75): < 0.01 µM (active) | GI50 (PC-3): > 100 µM (inactive) | GI50 (MDA-N): > 100 µM (inactive)

Cc1c2c(C#N)nccc2c(C)c2c1c1ccccc1n2Cc1ccccc1
GI50 (MDA-MB-435): > 100 µM (inactive) | GI50 (MOLT-4): > 10 µM (inactive) | GI50 (SW-620): > 100 µM (inactive) | GI50 (SK-MEL-28): > 100 µM (inactive) | GI50 (RXF 393): > 100 µM (inactive) | GI50 (UACC-257): > 100 µM (inactive) | GI50 (M14): > 100 µM (inactive) | GI50 (SF-539): > 100 µM (inactive) | GI50 (786-0): > 100 µM (inactive) | GI50 (SF-268): > 100 µM (inactive) | GI50 (HCT-15): > 100 µM | GI50 (COLO 205): > 100 µM (inactive) | GI50 (OVCAR-5): > 100 µM (inactive) | GI50 (HOP-92): 77.8 µM (inactive) | GI50 (SR): 36.1 µM (inactive) | GI50 (SNB-75): 57.8 µM (inactive) | GI50 (PC-3): > 100 µM (inactive) | GI50 (EKVX): 3.79 µM (inactive) | GI50 (MDA-N): > 100 µM (inactive)

O=C1c2ccccc2-c2nc(-c3ccncc3)cc3c2c1nc1ccccc13
GI50 (MDA-MB-435): 16 µM (inactive) | GI50 (MOLT-4): 2.83 µM (inactive) | GI50 (SW-620): 24.3 µM (inactive) | GI50 (NCI-H522): 10.7 µM (inactive) | GI50 (SK-MEL-28): 32.3 µM (inactive) | GI50 (UACC-257): 19.1 µM (inactive) | GI50 (M14): 3.21 µM (inactive) | GI50 (SF-539): 22 µM (inactive) | GI50 (786-0): 11.1 µM (inactive) | GI50 (HCT-15): 19 µM | GI50 (COLO 205): 22.3 µM (inactive) | GI50 (OVCAR-5): 18.7 µM (inactive) | GI50 (HOP-92): > 100 µM (inactive) | GI50 (SR): 2.38 µM (inactive) | GI50 (SNB-75): 32.5 µM (inactive) | GI50 (PC-3): 13.3 µM (inactive) | GI50 (EKVX): 34.2 µM (inactive) | GI50 (MDA-N): 17.4 µM (inactive)

C/C(=N\NC(=S)N1CCCCC1)c1nc2cccnc2[nH]1
GI50 (MDA-MB-435): 15.1 µM (inactive) | GI50 (MOLT-4): 3.41 µM (inactive) | GI50 (SW-620): 6.38 µM (inactive) | GI50 (NCI-H522): 12.9 µM (inactive) | GI50 (SK-MEL-28): 16 µM (inactive) | GI50 (UACC-257): 8 µM (inactive) | GI50 (M14): 7.46 µM (inactive) | GI50 (SF-539): 6.14 µM (inactive) | GI50 (786-0): 18 µM (inactive) | GI50 (SF-268): 5.51 µM (inactive) | GI50 (HCT-15): 5.81 µM | GI50 (COLO 205): 4.51 µM (inactive) | GI50 (OVCAR-5): 9.66 µM (inactive) | GI50 (HOP-92): 7.48 µM (inactive) | GI50 (SR): 3.64 µM (inactive) | GI50 (SNB-75): 38.4 µM (inactive) | GI50 (PC-3): 5.3 µM (inactive) | GI50 (EKVX): 5.3 µM (inactive) | GI50 (MDA-N): 14.6 µM (inactive)

CCOC(=O)Nc1ccc(S(=O)(=O)Nc2ccc(Br)cc2)cc1
GI50 (MDA-MB-435): 43.5 µM (inactive) | GI50 (MOLT-4): 26.9 µM (inactive) | GI50 (SW-620): 24.3 µM (inactive) | GI50 (NCI-H522): 29 µM (inactive) | GI50 (SK-MEL-28): 39.8 µM (inactive) | GI50 (RXF 393): 22 µM (inactive) | GI50 (UACC-257): 61.4 µM (inactive) | GI50 (M14): 49.3 µM (inactive) | GI50 (SF-539): 17.2 µM (inactive) | GI50 (786-0): 36.8 µM (inactive) | GI50 (SF-268): 28.2 µM (inactive) | GI50 (HCT-15): 61.5 µM | GI50 (COLO 205): 14.6 µM (inactive) | GI50 (OVCAR-5): 58.1 µM (inactive) | GI50 (HOP-92): 43.7 µM (inactive) | GI50 (SR): 18.2 µM (inactive) | GI50 (PC-3): 41 µM (inactive) | GI50 (EKVX): 29.2 µM (inactive) | GI50 (MDA-N): 37 µM (inactive)

CSc1ncc2c(n1)-c1ccccc1OC2N1CCOCC1 (stereo unspecified)
GI50 (MDA-MB-435): > 100 µM (inactive) | GI50 (MOLT-4): 43.3 µM (inactive) | GI50 (SW-620): > 100 µM (inactive) | GI50 (NCI-H522): 34.4 µM (inactive) | GI50 (RXF 393): 53.8 µM (inactive) | GI50 (UACC-257): 81.8 µM (inactive) | GI50 (M14): > 100 µM (inactive) | GI50 (SF-539): > 100 µM (inactive) | GI50 (786-0): 75.7 µM (inactive) | GI50 (SF-268): 87.9 µM (inactive) | GI50 (HCT-15): 53.7 µM | GI50 (COLO 205): > 100 µM (inactive) | GI50 (OVCAR-5): > 100 µM (inactive) | GI50 (HOP-92): 41.9 µM (inactive) | GI50 (SR): 64.9 µM (inactive) | GI50 (SNB-75): 44.5 µM (inactive) | GI50 (PC-3): 31.6 µM (inactive) | GI50 (EKVX): 76 µM (inactive) | GI50 (MDA-N): > 100 µM (inactive)

O=S(=O)(O)c1c(/N=N/c2c(O)ccc3ccccc23)ccc2ccccc12
GI50 (MDA-MB-435): > 100 µM (inactive) | GI50 (MOLT-4): > 100 µM (inactive) | GI50 (SW-620): > 100 µM (inactive) | GI50 (NCI-H522): 93.5 µM (inactive) | GI50 (SK-MEL-28): > 100 µM (inactive) | GI50 (RXF 393): > 100 µM (inactive) | GI50 (UACC-257): > 100 µM (inactive) | GI50 (M14): > 100 µM (inactive) | GI50 (786-0): > 100 µM (inactive) | GI50 (SF-268): 51.4 µM (inactive) | GI50 (HCT-15): > 100 µM | GI50 (COLO 205): 70.1 µM (inactive) | GI50 (OVCAR-5): > 100 µM (inactive) | GI50 (HOP-92): > 100 µM (inactive) | GI50 (SR): > 100 µM (inactive) | GI50 (SNB-75): > 100 µM (inactive) | GI50 (PC-3): > 100 µM (inactive) | GI50 (EKVX): > 100 µM (inactive) | GI50 (MDA-N): > 100 µM (inactive)

O=c1c2cc([N+](=O)[O-])cnc2sn1-c1ccc(Br)cc1
GI50 (MDA-MB-435): > 100 µM (inactive) | GI50 (MOLT-4): 32.8 µM (inactive) | GI50 (SW-620): 28.3 µM (inactive) | GI50 (NCI-H522): 5.5 µM (inactive) | GI50 (SK-MEL-28): > 100 µM (inactive) | GI50 (UACC-257): > 100 µM (inactive) | GI50 (M14): 53 µM (inactive) | GI50 (SF-539): 27.3 µM (inactive) | GI50 (786-0): 30.5 µM (inactive) | GI50 (SF-268): 27.5 µM (inactive) | GI50 (HCT-15): 57.4 µM | GI50 (COLO 205): 47.2 µM (inactive) | GI50 (OVCAR-5): 38.4 µM (inactive) | GI50 (HOP-92): 23.8 µM (inactive) | GI50 (SR): 21.8 µM (inactive) | GI50 (SNB-75): 73.5 µM (inactive) | GI50 (PC-3): 33.7 µM (inactive) | GI50 (EKVX): 42.5 µM (inactive) | GI50 (MDA-N): > 100 µM (inactive)

Cc1c2ccccc2c(C)n2c1nc1ccccc12
GI50 (MDA-MB-435): 6.1 µM (inactive) | GI50 (MOLT-4): 2.9 µM (inactive) | GI50 (SW-620): 3.73 µM (inactive) | GI50 (SK-MEL-28): 7.85 µM (inactive) | GI50 (RXF 393): 9.44 µM (inactive) | GI50 (UACC-257): 14.2 µM (inactive) | GI50 (M14): 9.35 µM (inactive) | GI50 (SF-539): 4.56 µM (inactive) | GI50 (786-0): 4.68 µM (inactive) | GI50 (SF-268): 9.89 µM (inactive) | GI50 (HCT-15): 4.54 µM | GI50 (OVCAR-5): 16 µM (inactive) | GI50 (HOP-92): 12.2 µM (inactive) | GI50 (SR): 6.5 µM (inactive) | GI50 (SNB-75): 12.5 µM (inactive) | GI50 (PC-3): 6.98 µM (inactive) | GI50 (EKVX): 14 µM (inactive) | GI50 (MDA-N): 10.6 µM (inactive)

CC(=O)N1CCN(C23OC4(N5CCN(C(C)=O)CC5)C5C6CC(C7C6C4C72)C53)CC1 (stereo unspecified)
GI50 (MDA-MB-435): > 100 µM (inactive) | GI50 (MOLT-4): > 100 µM (inactive) | GI50 (SW-620): > 100 µM (inactive) | GI50 (NCI-H522): > 100 µM (inactive) | GI50 (RXF 393): > 100 µM (inactive) | GI50 (UACC-257): > 100 µM (inactive) | GI50 (M14): > 100 µM (inactive) | GI50 (SF-539): > 100 µM (inactive) | GI50 (786-0): > 100 µM (inactive) | GI50 (SF-268): > 100 µM (inactive) | GI50 (HCT-15): > 100 µM | GI50 (COLO 205): > 100 µM (inactive) | GI50 (OVCAR-5): > 100 µM (inactive) | GI50 (HOP-92): > 100 µM (inactive) | GI50 (SR): > 100 µM (inactive) | GI50 (SNB-75): > 100 µM (inactive) | GI50 (PC-3): > 100 µM (inactive) | GI50 (EKVX): > 100 µM (inactive) | GI50 (MDA-N): > 100 µM (inactive)
